Target: Receptor protein serine/threonine kinase (Danio rerio, UniProt B3DJG0)
Experiment: Kinase assay Dorsalization

Chain of Receptor protein serine/threonine kinase (B3DJG0 whole entry): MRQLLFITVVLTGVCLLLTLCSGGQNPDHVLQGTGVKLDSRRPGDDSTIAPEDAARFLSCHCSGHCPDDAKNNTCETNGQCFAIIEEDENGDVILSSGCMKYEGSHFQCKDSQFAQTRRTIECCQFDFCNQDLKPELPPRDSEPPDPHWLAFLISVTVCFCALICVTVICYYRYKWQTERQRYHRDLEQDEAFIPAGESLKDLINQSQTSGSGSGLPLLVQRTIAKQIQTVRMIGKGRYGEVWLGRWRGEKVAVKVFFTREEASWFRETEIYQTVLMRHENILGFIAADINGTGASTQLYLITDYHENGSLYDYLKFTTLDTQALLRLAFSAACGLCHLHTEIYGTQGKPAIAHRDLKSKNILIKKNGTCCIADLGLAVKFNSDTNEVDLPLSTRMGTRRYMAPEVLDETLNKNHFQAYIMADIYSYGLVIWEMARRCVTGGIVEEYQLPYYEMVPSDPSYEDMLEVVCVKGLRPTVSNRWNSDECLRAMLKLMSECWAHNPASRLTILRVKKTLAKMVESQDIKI

| EC100 | Compound |
| --- | --- |
| 100 nM | c1ccc2c(-c3cnn4cc(-c5ccc(OCCN6CCOCC6)cc5)cnc34)ccnc2c1 [4-(2-(4-(3-(quinolin-4-yl)pyrazolo[1,5-a]pyrimidin-6-yl)phenoxy)ethyl)morpholine] |
| 1000 nM | CN(C)CCCOc1ccc(-c2cnc3c(-c4ccnc5ccccc45)cnn3c2)cc1 [DMH3] |
| > 50000 nM | COc1ccc(-c2cnc3c(-c4ccccc4)cnn3c2)cc1 [dorsomorphin (6LP)] |
| 200 nM | CC(C)Oc1ccc(-c2cnc3c(-c4ccnc5ccccc45)cnn3c2)cc1 [4-(6-(4-isopropoxyphenyl)pyrazolo[1,5-a]pyrimidin-3-yl)quinoline] |
| 1000 nM | c1cc(-c2cnn3cc(-c4ccc(OCCN5CCOCC5)cc4)cnc23)ccn1 |

| Compound | EC100 |
| --- | --- |
| c1ccc2c(-c3cnn4cc(-c5ccc(N6CCNCC6)cc5)cnc34)ccnc2c1 [LDN-193189] | 3000 nM |

From BindingDB's records for doi:10.1021/cb9002865 (Vanderbilt University, 2010)
